Data: US12410152B2, “Oxazole and thioazole-type cullin ring ubiquitin ligase compounds and uses thereof” (Proxygen GmbH, priority 2019, dated 2025)

Columns and labels:
DCAF15 = biological target: T1, DCAF15 (Homo sapiens, UniProt Q66K64); assay: DCAF15 stabilization, live-cell HiBit/LgBit bioluminescence screen; format: cell-based; details: 10 μM, 293T cells expressing HiBit-DCAF15
T1 construct: expressed in transfected cells; host or cells: 293T cells, DCAF15 knocked out, additionally transduced with LgBit
From the text: Subsequently, in this context, the E3 ligase substrate receptor (SR) stabilization approach was employed in order to identify novel chemical matter that can bind and chemically re-program the substrate receptor DCAF15. To be able to screen a collection of around 8000 small-molecules, a cellular system was developed that enabled monitoring of DCAF15 levels in live cells in multi-well format. To that end, DCAF15 was first knocked out in 293T cells via CRISPR/Cas9 technology. Then, DCAF15 was stably expressed as a HiBit® fusion protein in these cells. After further transducing these cells with LgBit, this allowed live-cell tracing of DCAF15 levels in 384 well format by measuring bioluminescence (FIG. 13).
In brief, cells were seeded at a concentration of 250′000 cells/ml in DMEM+10% FCS+25 mM Hepes. The luciferase substrate Endurazine was added at concentrations recommended by the manufacturer. Small-molecules were added at a concentration of 10 μM, and their effect on DCAF15 levels was assayed by continuous bioluminescent imaging (measurements were taken every 120 minutes). In total, 8000 compounds were tested.
The known DCAF15 molecular glue indisulam was used as a positive control. In brief, indisulam is known to act as a DCAF15-dependent molecular glue that binds DCAF15 and induced proximity between DCAF15 and RBM39, leading to the degradation of the latter. […]

KBM7 WT cells = assay: cells; format: cell-based; details: for EC50: Homo sapiens, KBM-7, read-out: KBM7_WT; for effect on KBM7 cells in dose-ranging viability assays: WT KBM7, 3-day treatment
Procedure: (§1) KBM7 cells with the specified genetic backgrounds were grown in IMDM supplemented with 10% FBS and 1% penicillin/streptomycin (pen/strep). AsPC1, HCT116, NCI-H446 and 293T cells were grown in DMEM 10% FBS and 1% pen/strep. MV4; 11, Jurkat and Be (2) C cells were grown in RPMI 10% FBS 1% pen/strep. KBM7, AsPC1 and HCT116 cells expressing Cas9 were generated using the plasmid Lenti_Cas9_Blasti (Addgene #52962). The lentiviral plasmid lentiGuide-Puro (Addgene #52963) was used to express sgRNAs against the genes UBE2M (in KBM7-Cas9, AsPC1-Cas9 and HCT116-Cas9 cells), UBE2G1 (in KBM7-Cas9 cells) and […] (in KBM7-Cas9 cells). The lentiviral plasmid lentiGuide-Puro-IRES-mCherry (modified from Addgene #52963) was used to express sgRNAs against CUL4A (in KBM7-Cas9 cells). The lentiviral plasmid pLenti-PGK-Hygro-DEST-UBE2M was generated by Gateway cloning (empty destination vector Addgene #19066), and used to generate UBE2M^resc KBM7 cells. […]
(§2) Finally, a total of structurally similar analogs was tested to unravel structure-activity relationship of the identified molecules. To that end, their anti-cancer activity was assayed in WT cells, as well as KBM7 cells deficient in genes identified in the genome-wide CRISPR screens (UBE2M, CUL4B, UBE2G1). Moreover, the compounds were also tested in AsPC1 pancreatic cancer cells (WT or UBE2Mmut), MV4; 11 and Jurkat leukemia cells, Be (2) C neuroblastoma cells, and NCI-H446 lung cancer cells (Table 3 at the end of this document)
(§3) KBM7^WT, mutant KBM7 clones (UBE2M^mut, UBE2M^resc, UBE2G1^mut CUL4A^mut, CUL4B^mut), and 3-day doxycycline pretreated KBM7^iCas9_sgDDB1 cells were seeded at a cell density of 50,000 cells/mL in 96-well plates with DMSO or drug, in triplicates. Drugs used: IC020772.1/IC020772.1X, IC021313.2/IC021313.2X, T6938051/T6938051X or THZ531. Cells were treated for 3 days, after which cell viability was assessed according to manufacturer's protocol (CellTiter Glo, Promega G7570). Survival curves and EC50 values were calculated by best-fit analysis of the log 10 drug concentration to fold change of drug-treated cells over DMSO-treated cells. All survival assays included technical triplicates per sample, per experiment.

KBM7 CUL4Bmut cells = assay: cells; format: cell-based; details: Homo sapiens, KBM-7, read-out: KBM7_CUL4B_mut
Procedure: as §1, §2, §3

KBM7 UBE2G1mut cells = assay: cells; format: cell-based; details: Homo sapiens, KBM-7, read-out: KBM7_UBE2G1_mut
Procedure: as §1, §2, §3

UBE2M mutant KBM7 cells = assay: cells; format: cell-based; details: for EC50: Homo sapiens, KBM-7, read-out: KBM7_UBE2M_mut
Procedure: as §1
(§4) Following this observation, it was rationalized that novel small molecule degraders can be identified in an unbiased manner, simply by searching for compounds that lose activity in the absence of UBE2M. 2000 small molecules, mostly of unknown function/target, were tested for their antiproliferative effects in human leukemia cells (KBM7). These cells were either transduced with a control sgRNA (KBM7WT), or with an sgRNA targeting UBE2M, leading to a hypomorph (deletion of six amino acids) with a functional impairment (UBE2Mmut).
as §2, §3

cyclin K (CCNK) = biological target: T2, cyclin K (CCNK) (Homo sapiens, UniProt Q16531+Q9NYV4); assay: CCNK destabilization/degradation (expression proteomics and Western blot); format: cell-based; details: for rescue of drug-induced CCNK degradation by pretreatment: 30 min pretreatment before IC020772.1 (2.5 μM, 5h), 1 μM carfilzomib, 1 μM MLN4924, 10 μM TAK-243, 1 μM THZ531
T2 construct: endogenous in cells; host or cells: KBM7 cells (WT and UBE2M/CUL4B/UBE2G1 mutant clones)
Procedure: (§5) The hypomorphic phenotype of the mutated UBE2M allele in KBM7 cells (KBM7 UBE2M^mut cells) was assessed. In this regard, CRISPR/Cas9-induced mutation of UBE2M inactivated CRL activity including CRL4^CRBN and CRL2^VHL. […] Additionally, CCNK destabilization by all three compounds was validated via time-resolved immunoblots wherein CCNK degradation was evident after two hours (FIG. 19c).
(§6) Subsequently, a total of 53 structurally related analogue compounds in dose-ranging viability assays in KBM7 wildtype- and UBE2M^mut cells was tested to develop a structure-activity relationship for the assayed compounds. This informed on sites amenable for derivatization of analogs (FIG. 20a), and also to the identification of structurally similar small molecules with no measurable activity that are thus suited negative controls. […] CRL activity-dependent degradation of CCNK could be rescued by pharmacologic NAE inhibition and by blocking the ubiquitin activating enzyme UBA1, particularly by pretreating the cells with 1 μM carfilzomib (Selleckchem, S2853), 1 μM MLN4924 (Selleckchem, S7109), 10 μM TAK-243 (MedChemExpress, HY-100487) or 1 μM THZ531 (MedChemExpress HY-103618) (FIG. 19d). Furthermore, treatment with the selective covalent CDK12/13 inhibitor THZ531, which binds to the ATP binding pocket of CDK12/13, rescued CCNK degradation (FIG. 19d) indicating the role of the active site of CDK12/13 for CRL activity-dependent CCNK degradation by the identified compounds (FIG. 19d).
(§7) PBS-washed cell pellets were lysed in 50 mM Tris pH 7.9, 8M Urea and 1% CHAPS and incubated with shaking at 4° C. for at least 30 min. 20 μg of supernatants were run and transferred for detection. Antibodies used: CUL1 (Santa Cruz Biotechnology, sc-1276), CUL2 (Sigma-Aldrich, SAB2501565-100), CUL3 (Cell Signaling Technology, 2759), CUL4A (Cell Signaling Technology, 2699S), CUL4B (Proteintech, 12916-1-AP), CUL5 (Santa Cruz Biotechnology, sc-373822), UBE2M (Santa Cruz Biotechnology, sc-390064), DDB1 (Cell Signaling Technology, 5428S), CCNK (Bethyl, A301-939A), CDK12 (Cell Signaling Technology, 11973S), CDK13 (Bethyl, A301-458A), RBM39 (1:500, Santa Cruz Biotechnology sc-376531), V5 (Cell Signaling Technology, 13202), Ubiquityl-Histone H2A (K119) (Cell Signaling, 8240-20). ACTIN (Sigma-Aldrich, A5441), VINCUL1N (Santa Cruz Biotechnology, sc-25336). Secondary antibodies anti-mouse/rabbit/goat (Jackson ImmunoResearch 115-035-003, 111-035-003 and 705-035-003).
(§8) Comparison of overall proteome-wide changes in KBM7 cells treated with IC020772.1 (2.5 μM), IC021313.2 (7 μM) or T6938051 (3.5 μM) for 5 h and 12h, using quantitative proteomics based on isobaric tagging.

[1] = system: T3, cyclin K (CCNK) (Homo sapiens); assay: as above; format: cell-based; details: wild-type KBM7 cells
T3 construct: endogenous in cells; host or cells: KBM7 cells (WT and UBE2M/CUL4B/UBE2G1 mutant clones)
Procedure: as §5, §6, §7, §8

[2] = system: KBM7 WT and UBE2Mmut cells; assay: Primary phenotypic screen, differential viability KBM7 WT vs UBE2M mutant; format: cell-based, human; details: 10 μM and 500 nM, 3 days
Procedure: as §4
KBM7^WT and UBE2M^mut cells were treated with a compound library (2000 cytotoxic diverse small-molecules, mostly of unknown function/target). Briefly, the screening was divided in three parts 1) primary screening, 2) follow up and 3) validation. During the primary screening, cells were treated with 10 μM and 500 nM of every compound. […] After 3 days of treatment, cell viability was measured (CellTiter Glo, Promega). The screen was perform in 384-well plates (Corning 3712) and the reagent/compound dispensing system used was: Echo 520 Liquid Handler, Multidrop™ Combi Reagent Dispenser. Control compounds were included in several wells, in all the plates. Method for validation of IC021313.2, IC020822.1, IC020772.1, T6938051 as described above in (i).

T2 sequence (O75909 whole entry partner): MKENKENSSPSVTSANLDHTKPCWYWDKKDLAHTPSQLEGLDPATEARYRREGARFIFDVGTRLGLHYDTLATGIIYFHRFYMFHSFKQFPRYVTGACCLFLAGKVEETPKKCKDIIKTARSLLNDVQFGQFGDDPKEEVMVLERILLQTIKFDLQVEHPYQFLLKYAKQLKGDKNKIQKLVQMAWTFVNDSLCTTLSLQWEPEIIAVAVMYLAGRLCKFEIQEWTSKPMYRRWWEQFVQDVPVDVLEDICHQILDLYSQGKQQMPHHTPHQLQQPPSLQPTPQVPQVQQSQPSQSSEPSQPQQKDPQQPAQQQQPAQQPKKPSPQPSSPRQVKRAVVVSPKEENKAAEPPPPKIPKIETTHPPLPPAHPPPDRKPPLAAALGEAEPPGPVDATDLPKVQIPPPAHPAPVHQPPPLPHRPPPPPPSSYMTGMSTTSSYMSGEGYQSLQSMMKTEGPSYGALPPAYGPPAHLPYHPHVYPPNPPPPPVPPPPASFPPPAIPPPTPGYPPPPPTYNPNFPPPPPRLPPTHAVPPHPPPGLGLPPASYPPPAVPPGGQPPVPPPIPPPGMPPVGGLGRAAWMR
T2 sequence (Q9NYV4 whole entry): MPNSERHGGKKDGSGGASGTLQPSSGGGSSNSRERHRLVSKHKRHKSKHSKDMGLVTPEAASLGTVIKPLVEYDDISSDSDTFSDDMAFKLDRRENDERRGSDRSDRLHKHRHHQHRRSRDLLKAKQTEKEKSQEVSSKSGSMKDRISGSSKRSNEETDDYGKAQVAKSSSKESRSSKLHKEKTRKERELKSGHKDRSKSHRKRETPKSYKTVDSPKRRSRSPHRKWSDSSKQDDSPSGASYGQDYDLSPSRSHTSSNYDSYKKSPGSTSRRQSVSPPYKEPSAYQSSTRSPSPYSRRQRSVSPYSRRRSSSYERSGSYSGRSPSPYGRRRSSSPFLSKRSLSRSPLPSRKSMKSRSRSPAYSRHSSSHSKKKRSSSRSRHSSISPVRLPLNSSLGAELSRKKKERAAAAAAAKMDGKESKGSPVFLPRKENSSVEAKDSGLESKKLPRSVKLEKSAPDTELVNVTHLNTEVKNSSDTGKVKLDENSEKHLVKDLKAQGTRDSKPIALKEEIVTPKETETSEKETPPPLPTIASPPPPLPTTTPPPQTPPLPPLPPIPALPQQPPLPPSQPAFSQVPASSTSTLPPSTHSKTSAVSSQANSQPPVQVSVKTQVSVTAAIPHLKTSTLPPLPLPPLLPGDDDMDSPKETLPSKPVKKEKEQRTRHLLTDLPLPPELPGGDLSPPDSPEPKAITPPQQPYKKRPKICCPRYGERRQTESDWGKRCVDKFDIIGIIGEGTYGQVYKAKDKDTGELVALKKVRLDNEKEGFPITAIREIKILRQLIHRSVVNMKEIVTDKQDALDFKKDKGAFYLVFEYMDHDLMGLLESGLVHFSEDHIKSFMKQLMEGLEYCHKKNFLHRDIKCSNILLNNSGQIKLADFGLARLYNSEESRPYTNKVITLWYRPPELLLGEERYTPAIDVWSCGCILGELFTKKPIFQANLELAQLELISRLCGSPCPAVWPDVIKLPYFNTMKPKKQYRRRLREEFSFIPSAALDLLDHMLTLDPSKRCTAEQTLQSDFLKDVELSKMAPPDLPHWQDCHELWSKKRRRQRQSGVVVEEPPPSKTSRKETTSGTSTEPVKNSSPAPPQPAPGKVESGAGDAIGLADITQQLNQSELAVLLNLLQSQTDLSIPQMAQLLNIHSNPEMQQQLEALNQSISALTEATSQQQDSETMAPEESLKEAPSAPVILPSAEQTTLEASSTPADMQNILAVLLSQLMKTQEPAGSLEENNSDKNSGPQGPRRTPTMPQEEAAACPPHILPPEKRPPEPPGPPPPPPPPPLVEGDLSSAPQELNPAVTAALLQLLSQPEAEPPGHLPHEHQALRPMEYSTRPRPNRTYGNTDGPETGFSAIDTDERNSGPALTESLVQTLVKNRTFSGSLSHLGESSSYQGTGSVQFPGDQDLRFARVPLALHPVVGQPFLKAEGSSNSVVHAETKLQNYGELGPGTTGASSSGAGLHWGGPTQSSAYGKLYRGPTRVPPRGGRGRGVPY
T2 sequence (Q16531 2-1140 limits assumed): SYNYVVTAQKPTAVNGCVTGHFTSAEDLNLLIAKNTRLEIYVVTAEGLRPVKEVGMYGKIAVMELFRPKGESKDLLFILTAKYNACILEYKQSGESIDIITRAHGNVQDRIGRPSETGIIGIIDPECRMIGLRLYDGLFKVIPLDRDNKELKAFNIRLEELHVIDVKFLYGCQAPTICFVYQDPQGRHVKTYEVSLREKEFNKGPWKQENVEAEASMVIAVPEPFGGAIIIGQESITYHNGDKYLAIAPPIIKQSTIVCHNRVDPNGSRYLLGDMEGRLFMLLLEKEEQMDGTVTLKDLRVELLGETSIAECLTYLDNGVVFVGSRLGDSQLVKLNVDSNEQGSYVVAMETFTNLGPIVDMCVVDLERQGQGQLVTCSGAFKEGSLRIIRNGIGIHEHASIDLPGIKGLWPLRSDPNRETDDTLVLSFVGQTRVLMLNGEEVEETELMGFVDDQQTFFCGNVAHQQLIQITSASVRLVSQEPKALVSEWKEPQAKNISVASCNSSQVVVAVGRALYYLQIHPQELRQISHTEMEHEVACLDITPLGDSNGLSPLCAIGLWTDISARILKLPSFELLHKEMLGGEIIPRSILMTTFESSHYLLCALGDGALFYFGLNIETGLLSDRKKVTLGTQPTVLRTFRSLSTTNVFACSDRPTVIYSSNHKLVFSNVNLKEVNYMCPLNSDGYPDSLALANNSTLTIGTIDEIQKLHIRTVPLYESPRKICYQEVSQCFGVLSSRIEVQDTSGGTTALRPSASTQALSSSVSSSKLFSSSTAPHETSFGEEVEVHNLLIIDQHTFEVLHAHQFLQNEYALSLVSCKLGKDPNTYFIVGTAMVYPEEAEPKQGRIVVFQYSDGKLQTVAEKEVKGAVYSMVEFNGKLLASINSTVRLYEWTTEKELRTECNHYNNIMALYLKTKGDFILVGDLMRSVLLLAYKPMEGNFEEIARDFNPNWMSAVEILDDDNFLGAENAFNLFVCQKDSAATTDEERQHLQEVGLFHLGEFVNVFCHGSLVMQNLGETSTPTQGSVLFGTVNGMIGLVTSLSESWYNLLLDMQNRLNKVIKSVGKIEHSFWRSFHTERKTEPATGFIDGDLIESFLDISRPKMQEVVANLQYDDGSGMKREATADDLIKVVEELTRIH
T2 sequence (Q13620 whole entry partner): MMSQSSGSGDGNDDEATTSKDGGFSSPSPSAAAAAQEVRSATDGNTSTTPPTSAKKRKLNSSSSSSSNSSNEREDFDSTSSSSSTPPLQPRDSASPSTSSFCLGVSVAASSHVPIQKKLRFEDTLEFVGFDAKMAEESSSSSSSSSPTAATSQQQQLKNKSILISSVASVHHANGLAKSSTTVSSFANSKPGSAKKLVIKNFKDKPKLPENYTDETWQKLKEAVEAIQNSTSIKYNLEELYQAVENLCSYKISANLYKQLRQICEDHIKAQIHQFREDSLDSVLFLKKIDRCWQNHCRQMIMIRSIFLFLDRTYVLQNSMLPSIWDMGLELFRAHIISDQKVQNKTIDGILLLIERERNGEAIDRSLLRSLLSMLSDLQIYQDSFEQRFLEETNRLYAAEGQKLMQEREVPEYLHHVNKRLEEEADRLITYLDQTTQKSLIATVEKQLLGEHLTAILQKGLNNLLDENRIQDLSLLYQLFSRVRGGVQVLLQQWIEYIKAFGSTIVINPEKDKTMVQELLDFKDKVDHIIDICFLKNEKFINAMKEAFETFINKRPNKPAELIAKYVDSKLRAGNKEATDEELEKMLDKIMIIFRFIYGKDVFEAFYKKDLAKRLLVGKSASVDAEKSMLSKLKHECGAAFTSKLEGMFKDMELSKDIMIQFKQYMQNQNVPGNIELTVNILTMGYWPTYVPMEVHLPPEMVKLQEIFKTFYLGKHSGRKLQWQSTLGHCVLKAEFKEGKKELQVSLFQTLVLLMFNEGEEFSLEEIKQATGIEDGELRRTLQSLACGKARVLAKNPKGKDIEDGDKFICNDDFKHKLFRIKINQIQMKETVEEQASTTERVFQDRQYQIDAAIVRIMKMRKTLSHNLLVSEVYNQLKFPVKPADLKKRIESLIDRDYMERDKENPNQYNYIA
T2 sequence (P62877 whole entry partner): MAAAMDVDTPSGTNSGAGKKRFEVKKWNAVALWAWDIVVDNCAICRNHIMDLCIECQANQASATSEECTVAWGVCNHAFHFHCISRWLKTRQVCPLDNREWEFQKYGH
T3 sequence (O75909 whole entry partner): as the sequence (O75909 whole entry partner) above
T3 sequence (Q9NYV4 whole entry, further chain): as the sequence (Q9NYV4 whole entry) above
T3 sequence (Q16531 2-1140 limits assumed, further chain): as the sequence (Q16531 2-1140 limits assumed) above
T3 sequence (Q13620 whole entry partner): as the sequence (Q13620 whole entry partner) above
T3 sequence (P62877 whole entry partner): as the sequence (P62877 whole entry partner) above
T1 sequence (Q66K64 whole entry): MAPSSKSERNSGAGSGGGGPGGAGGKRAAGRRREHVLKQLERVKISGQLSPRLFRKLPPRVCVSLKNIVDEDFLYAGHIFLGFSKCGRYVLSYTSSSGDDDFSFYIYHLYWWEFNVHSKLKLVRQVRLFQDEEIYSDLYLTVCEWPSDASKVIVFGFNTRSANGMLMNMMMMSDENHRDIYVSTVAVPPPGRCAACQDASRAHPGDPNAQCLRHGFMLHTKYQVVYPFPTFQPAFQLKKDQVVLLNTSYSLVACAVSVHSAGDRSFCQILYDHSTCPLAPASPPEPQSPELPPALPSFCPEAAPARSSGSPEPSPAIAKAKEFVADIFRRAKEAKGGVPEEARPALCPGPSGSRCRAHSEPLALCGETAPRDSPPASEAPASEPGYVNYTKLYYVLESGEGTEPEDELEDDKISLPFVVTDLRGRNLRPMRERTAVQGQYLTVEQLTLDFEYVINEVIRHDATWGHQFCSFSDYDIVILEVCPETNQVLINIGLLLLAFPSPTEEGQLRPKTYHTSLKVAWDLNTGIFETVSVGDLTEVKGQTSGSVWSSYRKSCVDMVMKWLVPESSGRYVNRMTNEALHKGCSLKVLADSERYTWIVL

NS(=O)(=O)c1ccc(S(=O)(=O)Nc2cccc3c(Cl)c[nH]c23)cc1 [indisulam, reference compound]
DCAF15 stabilization (relative luciferase signal over time) (DCAF15): pronounced stabilization of DCAF15

O=C(CSc1nc2ccccc2[nH]1)Nc1ccc(Br)cn1 [Compound Z201181756, 2-((1H-benzo[d]imidazol-2-yl)thio)-N-(5-bromopyridin-2-yl) acetamide]
EC50 (KBM7 WT cells): 1.41 µM
EC50 (KBM7 CUL4Bmut cells): 12.6 µM
EC50 (KBM7 UBE2G1mut cells): 6.17 µM
EC50 (UBE2M mutant KBM7 cells): 34.7 µM

CC(C)C[C@H](NC(=O)[C@H](CCc1ccccc1)NC(=O)CN1CCOCC1)C(=O)N[C@@H](Cc1ccccc1)C(=O)N[C@@H](CC(C)C)C(=O)[C@@]1(C)CO1 [carfilzomib, reference compound]
rescue of drug-induced CCNK degradation by pretreatment (cyclin K (CCNK)): rescued

NS(=O)(=O)OC[C@H]1C[C@@H](Nc2ccnc3cc(-c4cccc(SC(F)(F)F)c4)nn23)[C@H](O)[C@@H]1O [TAK-243, reference compound]
rescue of drug-induced CCNK degradation by pretreatment (cyclin K (CCNK)): rescued

Cc1ncsc1-c1ccc([C@H](C)NC(=O)[C@@H]2C[C@@H](O)CN2C(=O)[C@@H](NC(=O)COCCCOCCNC(=O)C[C@@H]2N=C(c3ccc(Cl)cc3)c3c(sc(C)c3C)-n3c(C)nnc32)C(C)(C)C)cc1 [ARV-771, reference compound]
anti-proliferative effect upon mutation of UBE2M (UBE2M mutant KBM7 cells; KBM7 UBE2M mutant vs WT): efficacy is significantly abrogated

CCCn1c2ccccc2c2nnc(SCC(=O)Nc3ccc(Cl)cn3)nc21 [IC020772.1X]
effect on KBM7 cells in dose-ranging viability assays (KBM7 WT cells): did not affect KBM7 cells
CCNK destabilization [1]: failed to induce pronounced CCNK destabilization

CN(C)C/C=C/C(=O)Nc1ccc(C(=O)N2CCC[C@@H](Nc3ncc(Cl)c(-c4c[nH]c5ccccc45)n3)C2)cc1 [THZ531, reference compound]
rescue of drug-induced CCNK degradation by pretreatment (cyclin K (CCNK)): rescued
effect on CCNK upon inactivation of DDB1, UBE2G1 and UBE2M (cyclin K (CCNK); CRISPR-inactivated KBM7 cells): not affected

O=C(CSc1nc2ccccc2[nH]1)Nc1ccccn1 [IC021313.2X]
effect on KBM7 cells in dose-ranging viability assays (KBM7 WT cells): did not affect KBM7 cells
CCNK destabilization [1]: failed to induce pronounced CCNK destabilization

O=C(CSc1nc2ccccc2[nH]1)Nc1ccc(Br)cn1 [IC020822.1]
hit in differential viability screen [2]: stood out in terms of fold-change significance

Cc1ccc(NC(=O)C2CSCN2C(=O)c2ccc(C)o2)cc1 (stereo not shown) [Compound T6938051X]
effect on KBM7 cells in dose-ranging viability assays (KBM7 WT cells): did not affect KBM7 cells
CCNK destabilization [1]: failed to induce pronounced CCNK destabilization

O=C(CSc1nc2ccccc2[nH]1)Nc1ccc(Cl)cn1 [Compound Z54609541, 2-((1H-benzo[d]imidazol-2-yl)thio)-N-(5-chloropyridin-2-yl) acetamide]
EC50 (KBM7 WT cells): 2.41 µM
EC50 (KBM7 CUL4Bmut cells): 11.9 µM
EC50 (KBM7 UBE2G1mut cells): 7.6 µM
EC50 (UBE2M mutant KBM7 cells): 24.4 µM

NS(=O)(=O)OC[C@@H]1C[C@@H](n2ccc3c(N[C@H]4CCc5ccccc54)ncnc32)C[C@@H]1O [MLN4924, reference compound]
rescue of drug-induced CCNK degradation by pretreatment (cyclin K (CCNK)): rescued
